# Assay results reported in patent US8563567B2, “Substituted heterocyclic compounds” (ArQule, Inc., priority 2009, dated 2013).
# How the values were obtained:
# [1] = molecular target: Abl (T315I) (Homo sapiens, UniProt P00519, T315I); assay: Abl kinase activity assay (fluorescent ELISA, AblTide substrate); format: biochemical
# Description: The disclosed compounds were assayed for their ability to inhibit the activity of ABL kinase. Nunc Maxisorb plates are coated with streptavidin by overnight incubation with 100 μL per well of 1 μg/mL streptavidin in DPBS. Prior to the start of the experiment, the plates are washed with TBST (3×200 μL) and blocked for at least 3 hours by adding 150 μL of 5% BSA/TBST. The plates are washed with TBST (3×200 μL/well) and left dry immediately before the capture step.
# The test articles and controls (Gleevec) are prepared using the following assay buffer @ 10× desired final concentration (50 mM Tris pH 7.0, 0.02 mg/ml BSA, 10 mM MgCl2, 0.1 mM Na3VO4, 1 mM EGTA, 0.01% NP-40, 1 mM DTT in 10% glycerol/water). In a reaction plate are added rapidly 5 μL test article (or control) and 30 μL ABL or ABL T315I (0.089 nM final concentration, in the above buffer). The plate is incubated for 20 minutes. To the reaction plate is added ATP (100 μM final concentration) and AblTide (128 nM final concentration) in a volume of 15 μL. The plate is incubated at room temperature for one hour.
# From the reaction plate, 40 μL is transferred to the streptavidin coated plate. The capture plate is incubated at room temperature for 30 minutes then washed 3× with TBST. To the capture plate is added 100 μL/well of Cell Signaling anti-phospho tyrosine at a dilution of 1:3000 in 2% BSA/TBST. The plate is incubated for two hours at room temperature then washed 3× with TBST. To the capture plate is added 100 μL/well of Alkaline Phosphatase Tagged Goat anti Mouse Antibody at a dilution of 1:4000 in 2% BSA/TBST. The plate is incubated for one hour at room temperature then washed 3× with TBST.
# The fluorescent readout was initiated by the addition of 100 μL/well of Attophos reagent (6 mg/10 mL). The reading was done on the Perkin Elmer Envision system.
# [2] = molecular target: T1, FGFR2 (N549H) (Homo sapiens, UniProt P21802, N549H); assay: FGFR2 kinase activity assay (fluorescent ELISA); format: biochemical
# T1 construct: purchased Millipore 14-742
# Description: The enzymatic assays described herein are conducted according to the following procedures from commercially available reagents. In one, non limiting, example, a fluorescent ELISA assay is used to identify and characterize inhibitors of FGFR2 kinase as described herein. This heterogeneous assay utilizes a biotinylated peptide with a tyrosine motif as a substrate and an anti-phospho-tyrosine antibody to measure phosphorylation of the substrate. The reaction is initiated by adding the test compound, 37 μM Pyk2 substrate (Midwest Biotech, Cat. # MBT2383), 12.5 μM ATP (Roche, Cat. #11 140 965 001) and 0.5 μM FGFR2 enzyme (Millipore, Cat. #14-742) sequentially to a non-binding polypropylene V-well plate. All reagents are in an assay buffer consisting of: 50 mM Tris-HCL, 0.02 mg/ml BSA, 10 mM MgCl2, 0.1 mM Na3VO4, 1 mM EGTA, 75 μM ATP, 0.01% NP-40, 2 mM DTT and 10% glycerol. The reaction is incubated for 60 minutes. As the reaction proceeds, FGFR2 phosphorylates tyrosines in the peptide. The reaction mixture is then moved to a blocked streptavidin-coated Nunc Maxisorb plate (coated with 100 ng streptavidin from Pierce (Cat. #15-124) per well), allowing for the capture of the biotinylated peptide. Peptides are captured for 30 minutes at room temperature, the phosphorylation of peptides continues during this phase. The reaction is stopped by washing the streptavidin-coated plate 6 times with TBST. Phosphorylated peptide is detected by adding anti-phospho-tyrosine antibody (Cell Signaling, Cat. #9411, diluted 1:3000) to the streptavidin-coated plate. Unbound anti-phospho-tyrosine antibody is removed by washing the streptavidin-coated plate 6 times with TBST. Secondary detection is performed using alkaline phosphatase tagged goat anti-mouse antibody (Pierce, Cat. #31320, diluted 1:4000) for one hour. Unbound secondary antibody is removed by washing the streptavidin-coated plate 6 times with TBST. The fluorescent readout is initiated by adding to the streptavidin-coated plate Promega Attophos substrate (Promega, Cat. # S1000, dilution=6 mg/10 ml), which, when dephosphorylated by alkaline phosphatase, emits a fluorescent signal of 595 nm in wavelength when excited by a signal of 400 nm in wavelength. The reading of the 595 nm signal is done on the Perkin Elmer Envision system. Compounds which prevent FGFR2 from phosphorylating the peptide result in a lower fluorescent signal. The 595 nm fluorescent signal is directly proportional to the activity of FGFR2. Thus, the inhibition of FGFR2 by compounds is monitored by the decrease in the 595 nm fluorescent signal.
# [3] = system: DLD-1; assay: MTS assay, DLD-1; format: cell-based; conditions: Homo sapiens, DLD-1, 72 h
# Description: (§1) Cells were maintained at 37° C., 5% CO2 in RPMI media supplemented with 1% fetal bovine serum, penicillin/streptomycin and fungizone (Invitrogen). Cells were seeded into 96-well tissue culture plates at 3000 per well and cultured at 37° C. for 18 h. Test compounds were dissolved and diluted to 300× in DMSO then diluted 1:40 in DMEM. Cells were incubated with test compounds for 72 hours followed by incubation with tetrazolium compound (3-(4,5-dimethylthiazol-2-yl)-5-(3-carboxymethoxyphenyl)-2-(4-sulfophenyl)-2H-tetrazolium, inner salt; MTS) and the electron coupling reagent, phenazine methosulfate (PMS) for 4 hours. […] The ability of compounds to inhibit cell growth in this assay is correlated with the reduction of dehydrogenase enzyme activity found in metabolically active cells. The measurement of the absorbance of the formazan was assessed using an ENVISION™ (Perkin Elmer) microplate reader at 492 nm. The calculated IC50 value is the concentration of the test compound that causes a 50% decrease in the absorbance.
# [4] = system: MDA-MB-231; assay: MTS assay, MDA-MB-231; format: cell-based; conditions: Homo sapiens, MDA-MB-231, 72 h
# Description: as §1
# T1 sequence (P21802 22-821 N549H): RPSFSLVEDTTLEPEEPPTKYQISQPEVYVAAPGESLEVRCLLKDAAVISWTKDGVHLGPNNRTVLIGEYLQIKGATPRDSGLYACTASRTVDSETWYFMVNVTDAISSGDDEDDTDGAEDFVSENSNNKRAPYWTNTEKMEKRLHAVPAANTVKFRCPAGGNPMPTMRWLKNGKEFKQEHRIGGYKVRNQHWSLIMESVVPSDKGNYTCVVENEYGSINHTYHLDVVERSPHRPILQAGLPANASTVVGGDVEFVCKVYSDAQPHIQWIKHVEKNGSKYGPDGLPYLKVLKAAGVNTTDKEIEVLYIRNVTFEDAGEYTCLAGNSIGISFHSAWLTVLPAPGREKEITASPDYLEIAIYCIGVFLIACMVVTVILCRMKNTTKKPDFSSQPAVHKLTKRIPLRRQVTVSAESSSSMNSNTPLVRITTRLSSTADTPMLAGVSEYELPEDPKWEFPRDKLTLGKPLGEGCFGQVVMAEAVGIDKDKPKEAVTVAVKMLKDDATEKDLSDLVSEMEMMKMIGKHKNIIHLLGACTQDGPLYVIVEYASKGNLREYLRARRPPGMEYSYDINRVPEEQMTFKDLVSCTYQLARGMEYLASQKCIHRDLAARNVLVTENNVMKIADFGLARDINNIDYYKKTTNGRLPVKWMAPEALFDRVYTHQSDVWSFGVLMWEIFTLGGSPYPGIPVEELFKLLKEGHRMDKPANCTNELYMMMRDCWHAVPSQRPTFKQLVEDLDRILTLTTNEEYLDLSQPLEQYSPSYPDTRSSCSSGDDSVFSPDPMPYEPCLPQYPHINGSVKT
smiles,measurement,setting,value
"O=c1[nH][nH]c(-c2cn3c4c(cccc24)CCC3)c1-c1c[nH]c2ccccc12 [Compound 4, 5-(5,6-dihydro-4H-pyrrolo[3,2,1-ij]quinolin-1-yl)-4-(1H-indol-3-yl)-1,2-dihydro-3H-pyrazol-3-one]",inhibition at 10 µM,[1],63%
same,inhibition at 30 µM,[2],96%
"O=c1[nH][nH]c(-c2ccccc2)c1-c1cn2c3c(cccc13)CCC2 [Compound 10, 4-(5,6-dihydro-4H-pyrrolo[3,2,1-ij]quinolin-1-yl)-5-phenyl-1,2-dihydro-3H-pyrazol-3-one]",inhibition at 10 µM,[1],25%
same,inhibition at 10 µM,[3],46%
same,inhibition at 10 µM,[4],37%
"O=c1[nH][nH]c(-c2ccc(Cl)cc2)c1-c1cn2c3c(cccc13)CCC2 [Compound 11, 5-(4-chlorophenyl)-4-(5,6-dihydro-4H-pyrrolo[3,2,1-ij]quinolin-1-yl)-1,2-dihydro-3H-pyrazol-3-one]",inhibition at 10 µM,[1],13%
same,inhibition at 10 µM,[3],97%
same,inhibition at 10 µM,[4],97%
"O=c1[nH][nH]c(-c2cc3ccccc3s2)c1-c1cn2c3c(cccc13)CCC2 [Compound 12, 5-(1-benzothien-2-yl)-4-(5,6-dihydro-4H-pyrrolo[3,2,1-ij]quinolin-1-yl)-1,2-dihydro-3H-pyrazol-3-one]",inhibition at 10 µM,[1],53%
same,inhibition at 10 µM,[3],87%
same,inhibition at 10 µM,[4],90%
"CC(C)(C)Cc1[nH][nH]c(=O)c1-c1cn2c3c(cccc13)CCC2 [Compound 14, 4-(5,6-dihydro-4H-pyrrolo[3,2,1-ij]quinolin-1-yl)-5-(2,2-dimethylpropyl)-1,2-dihydro-3H-pyrazol-3-one]",inhibition at 10 µM,[1],8%
same,inhibition at 10 µM,[3],57%
same,inhibition at 10 µM,[4],72%
"O=c1[nH][nH]c(-c2ccccc2Cl)c1-c1cn2c3c(cccc13)CCC2 [Compound 15, 5-(2-chlorophenyl)-4-(5,6-dihydro-4H-pyrrolo[3,2,1-ij]quinolin-1-yl)-1,2-dihydro-3H-pyrazol-3-one]",inhibition at 10 µM,[1],20%
same,inhibition at 30 µM,[2],33%
"Cc1ccc(-c2[nH][nH]c(=O)c2-c2cn3c4c(cccc24)CCC3)cc1 [Compound 16, 4-(5,6-dihydro-4H-pyrrolo[3,2,1-ij]quinolin-1-yl)-5-(4-methylphenyl)-1,2-dihydro-3H-pyrazol-3-one]",inhibition at 10 µM,[1],83%
same,inhibition at 10 µM,[3],78%
same,inhibition at 10 µM,[4],63%
"O=c1[nH][nH]c(-c2ccc(Cl)cc2Cl)c1-c1cn2c3c(cccc13)CCC2 [Compound 17, 5-(2,4-dichlorophenyl)-4-(5,6-dihydro-4H-pyrrolo[3,2,1-ij]quinolin-1-yl)-1,2-dihydro-3H-pyrazol-3-one]",inhibition at 10 µM,[1],81%
same,inhibition at 10 µM,[3],40%
same,inhibition at 30 µM,[2],48%
"COc1ccc(-c2[nH][nH]c(=O)c2-c2cn3c4c(cccc24)CCC3)cc1 [Compound 18, 4-(5,6-dihydro-4H-pyrrolo[3,2,1-ij]quinolin-1-yl)-5-(4-methoxyphenyl)-1,2-dihydro-3H-pyrazol-3-one]",inhibition at 10 µM,[1],9%
same,inhibition at 10 µM,[3],72%
same,inhibition at 10 µM,[4],59%
"O=c1[nH][nH]c(C2CCCC2)c1-c1cn2c3c(cccc13)CCC2 [Compound 19, 5-cyclopentyl-4-(5,6-dihydro-4H-pyrrolo[3,2,1-ij]quinolin-1-yl)-1,2-dihydro-3H-pyrazol-3-one]",inhibition at 10 µM,[1],77%
"O=c1[nH][nH]c(-c2ccccc2Br)c1-c1cn2c3c(cccc13)CCC2 [Compound 20, 5-(2-bromophenyl)-4-(5,6-dihydro-4H-pyrrolo[3,2,1-ij]quinolin-1-yl)-1,2-dihydro-3H-pyrazol-3-one]",inhibition at 10 µM,[1],87%
same,inhibition at 30 µM,[2],45%
"O=c1[nH][nH]c(-c2cccc(F)c2)c1-c1cn2c3c(cccc13)CCC2 [Compound 21, 4-(5,6-dihydro-4H-pyrrolo[3,2,1-ij]quinolin-1-yl)-5-(3-fluorophenyl)-1,2-dihydro-3H-pyrazol-3-one]",inhibition at 10 µM,[1],79%
same,inhibition at 30 µM,[2],75%
"CCOc1ccc2ccccc2c1-c1[nH][nH]c(=O)c1-c1cn2c3c(cccc13)CCC2 [Compound 22, 4-(5,6-dihydro-4H-pyrrolo[3,2,1-ij]quinolin-1-yl)-5-(2-ethoxy-1-naphthyl)-1,2-dihydro-3H-pyrazol-3-one]",inhibition at 10 µM,[1],11%
same,inhibition at 30 µM,[2],41%
"CC(C)c1[nH][nH]c(=O)c1-c1cn2c3c(cccc13)CCC2 [Compound 23, 4-(5,6-dihydro-4H-pyrrolo[3,2,1-ij]quinolin-1-yl)-5-isopropyl-1,2-dihydro-3H-pyrazol-3-one]",inhibition at 10 µM,[1],8%
"O=C(Nc1ccccc1OC(F)F)N1CCC(CNc2nccc(-c3cn4c5c(cccc35)CCC4)n2)CC1 [Compound 50, N-(2-(difluoromethoxy)phenyl)-4-((4-(5,6-dihydro-4H-pyrrolo[3,2,1-ij]quinolin-1-yl)pyrimidin-2-ylamino)methyl)piperidine-1-carboxamide]",inhibition at 10 µM,[3],55%
same,inhibition at 30 µM,[2],55%
same,inhibition at 10 µM,[4],53%
"CC(=O)c1ccccc1NC(=O)N1CCC(CNc2nccc(-c3cn4c5c(cccc35)CCC4)n2)CC1 [Compound 51, N-(2-acetylphenyl)-4-((4-(5,6-dihydro-4H-pyrrolo[3,2,1-ij]quinolin-1-yl)pyrimidin-2-ylamino)methyl)piperidine-1-carboxamide]",inhibition at 10 µM,[3],97%
same,inhibition at 30 µM,[2],52%
same,inhibition at 10 µM,[4],72%
"COc1ccc(NC(=O)N2CCC(CNc3nccc(-c4cn5c6c(cccc46)CCC5)n3)CC2)c(OC)c1 [Compound 53, 4-((4-(5,6-dihydro-4H-pyrrolo[3,2,1-ij]quinolin-1-yl)pyrimidin-2-ylamino)methyl)-N-(2,4-dimethoxyphenyl)piperidine-1-carboxamide]",inhibition at 10 µM,[3],98%
same,inhibition at 30 µM,[2],48%
same,inhibition at 10 µM,[4],95%
"COc1ccccc1C(=O)N1CCC(CNc2nccc(-c3cn4c5c(cccc35)CCC4)n2)CC1 [Compound 54, (4-((4-(5,6-dihydro-4H-pyrrolo[3,2,1-ij]quinolin-1-yl)pyrimidin-2-ylamino)methyl)piperidin-1-yl)(2-methoxyphenyl)methanone]",inhibition at 10 µM,[3],95%
same,inhibition at 30 µM,[2],46%
same,inhibition at 10 µM,[4],37%
